In patent US20160031925A1, “AZITHROMYCIN ANTIMICROBIAL DERIVATIVES WITH NON-ANTIBIOTIC PHARMACEUTICAL EFFECT” (priority 2013, published 2016):
Read-outs that look alike come from different tables or passages of the source.

Experiments:
Format in all cases: cell-based
[1] = test system: Staphylococcus aureus ATTC 6538; experiment: Antimicrobial disk susceptibility test (CLSI M2-A9), S. aureus
Experimental: (§1) Test for the antimicrobial activity of the novel compounds may be performed according to the standards of Clinical and Laboratory Standards Institute, Performance Standards for Antimicrobial Disk Susceptibility Tests; approved Standard; M2-A), vol. 26 NO. 1 9th ed.
as §1, with “A test for” for “Test for”, “compounds were” for “compounds may be”, “ed. The samples were dissolved in 10 ml of sterile Milli-Q water by magnetic stirring overnight at 20° C.” for “ed.”
(§2) Two doses of the samples were tested in duplicate, a) and b). The size of the inhibition zones were measured in mm after incubation.

[2] = test system: Escherichia coli ATCC 8739; experiment: Antimicrobial disk susceptibility test (CLSI M2-A9), E. coli
Experimental: as §1
as §1, with “A test for” for “Test for”, “compounds were” for “compounds may be”, “ed. The samples were dissolved in 10 ml of sterile Milli-Q water by magnetic stirring overnight at 20° C.” for “ed.”
as §2

[3] = test system: Pseudomonas aeruginosa ATCC 9027; experiment: Antimicrobial disk susceptibility test (CLSI M2-A9), P. aeruginosa
Experimental: as §1
as §1, with “A test for” for “Test for”, “compounds were” for “compounds may be”, “ed. The samples were dissolved in 10 ml of sterile Milli-Q water by magnetic stirring overnight at 20° C.” for “ed.”
as §2

[4] = test system: Klebsiella pneumonia ATCC 35657; experiment: Antimicrobial disk susceptibility test (CLSI M2-A9), K. pneumonia
Experimental: as §1
as §1, with “A test for” for “Test for”, “compounds were” for “compounds may be”, “ed. The samples were dissolved in 10 ml of sterile Milli-Q water by magnetic stirring overnight at 20° C.” for “ed.”
as §2

[5] = Staphylococcus aureus, ATTC6538; 5 μg/disk, duplicate a); read-out: size of the inhibition zone, S. aureus a)
[6] = Staphylococcus aureus, ATTC6538; 5 μg/disk, duplicate b); read-out: size of the inhibition zone, S. aureus b)
[7] = Staphylococcus aureus, ATTC6538; 10 μg/disk, duplicate a); read-out: size of the inhibition zone, S. aureus a)
[8] = Staphylococcus aureus, ATTC6538; 10 μg/disk, duplicate b); read-out: size of the inhibition zone, S. aureus b)
[9] = Escherichia coli, ATCC8739; 5 μg/disk, duplicate a); read-out: size of the inhibition zone, E. coli a)
[10] = Escherichia coli, ATCC8739; 5 μg/disk, duplicate b); read-out: size of the inhibition zone, E. coli b)
[11] = Escherichia coli, ATCC8739; 10 μg/disk, duplicate a); read-out: size of the inhibition zone, E. coli a)
[12] = Escherichia coli, ATCC8739; 10 μg/disk, duplicate b); read-out: size of the inhibition zone, E. coli b)
[13] = Pseudomonas aeruginosa, ATCC9027; 5 μg/disk, duplicate a); read-out: size of the inhibition zone, P. aeruginosa a)
[14] = Pseudomonas aeruginosa, ATCC9027; 5 μg/disk, duplicate b); read-out: size of the inhibition zone, P. aeruginosa b)
[15] = Pseudomonas aeruginosa, ATCC9027; 10 μg/disk, duplicate a); read-out: size of the inhibition zone, P. aeruginosa a)
[16] = Pseudomonas aeruginosa, ATCC9027; 10 μg/disk, duplicate b); read-out: size of the inhibition zone, P. aeruginosa b)
[17] = Klebsiella pneumoniae, ATCC35657; 5 μg/disk, duplicate a); read-out: size of the inhibition zone, K. pneumonia a)
[18] = Klebsiella pneumoniae, ATCC35657; 5 μg/disk, duplicate b); read-out: size of the inhibition zone, K. pneumonia b)
[19] = Klebsiella pneumoniae, ATCC35657; 10 μg/disk, duplicate a); read-out: size of the inhibition zone, K. pneumonia a)
[20] = Klebsiella pneumoniae, ATCC35657; 10 μg/disk, duplicate b); read-out: size of the inhibition zone, K. pneumonia b)

SMILES	zone of inhibition at 5 µg/disc [1, 5]	zone of inhibition at 5 µg/disc [1, 6]	zone of inhibition at 10 µg/disc [1, 7]	zone of inhibition at 10 µg/disc [1, 8]	zone of inhibition at 5 µg/disc [2, 9]	zone of inhibition at 5 µg/disc [2, 10]	zone of inhibition at 10 µg/disc [2, 11]	zone of inhibition at 10 µg/disc [2, 12]	zone of inhibition at 5 µg/disc [3, 13]	zone of inhibition at 5 µg/disc [3, 14]	zone of inhibition at 10 µg/disc [3, 15]	zone of inhibition at 10 µg/disc [3, 16]	zone of inhibition at 5 µg/disc [4, 17]	zone of inhibition at 5 µg/disc [4, 18]	zone of inhibition at 10 µg/disc [4, 19]	zone of inhibition at 10 µg/disc [4, 20]	size of the inhibition zone, S. aureus a) ([1]; 5 μg/disk, duplicate a))	size of the inhibition zone, S. aureus b) ([1]; 5 μg/disk, duplicate b))	size of the inhibition zone, S. aureus a) ([1]; 10 μg/disk, duplicate a))	size of the inhibition zone, S. aureus b) ([1]; 10 μg/disk, duplicate b))	other results
CC[C@H]1OC(=O)[C@H](C)C(O[C@H]2C[C@@](C)(OC)[C@@H](O)[C@H](C)O2)[C@H](C)[C@@H](OC2O[C@H](C)C[C@H](N(C)C)[C@H]2C)[C@](C)(O)C[C@@H](C)CN(C)[C@H](C)[C@@H](O)[C@]1(C)O (stereo partly drawn) [PP001]	< 1 mm	< 1 mm	< 1 mm	< 1 mm	< 1 mm	< 1 mm	< 1 mm	< 1 mm	< 1 mm	< 1 mm	< 1 mm	< 1 mm	< 1 mm	< 1 mm	< 1 mm	< 1 mm					
CC[C@H]1OC(=O)[C@H](C)C(O[C@H]2C[C@@](C)(OC)[C@@H](C)[C@H](C)O2)[C@H](C)[C@@H](OC2O[C@H](C)C[C@H](N(C)C)[C@H]2O)[C@](C)(O)C[C@@H](C)CN(C)[C@H](C)[C@@H](O)[C@]1(C)O (stereo partly drawn) [PP002]	< 1 mm	< 1 mm	< 1 mm	< 1 mm	< 1 mm	< 1 mm	< 1 mm	< 1 mm	< 1 mm	< 1 mm	< 1 mm	< 1 mm	< 1 mm	< 1 mm	< 1 mm	< 1 mm					
CCC1OC(=O)C(C)C(OC2CC(C)(OC)C(C)C(C)O2)C(C)C(OC2OC(C)CC(N(C)C)C2C)C(C)(O)CC(C)CN(C)C(C)C(O)C1(C)O (stereo not drawn) [PP003]																	<1 mm	<1 mm	<1 mm	<1 mm	size of the inhibition zone, E. coli a) ([2]; 5 μg/disk, duplicate a)): <1 mm; size of the inhibition zone, E. coli b) ([2]; 5 μg/disk, duplicate b)): <1 mm; size of the inhibition zone, E. coli a) ([2]; 10 μg/disk, duplicate a)): <1 mm; size of the inhibition zone, E. coli b) ([2]; 10 μg/disk, duplicate b)): <1 mm; size of the inhibition zone, P. aeruginosa a) ([3]; 5 μg/disk, duplicate a)): <1 mm; size of the inhibition zone, P. aeruginosa b) ([3]; 5 μg/disk, duplicate b)): <1 mm; size of the inhibition zone, P. aeruginosa a) ([3]; 10 μg/disk, duplicate a)): <1 mm; size of the inhibition zone, P. aeruginosa b) ([3]; 10 μg/disk, duplicate b)): <1 mm; size of the inhibition zone, K. pneumonia a) ([4]; 5 μg/disk, duplicate a)): <1 mm; size of the inhibition zone, K. pneumonia b) ([4]; 5 μg/disk, duplicate b)): <1 mm; size of the inhibition zone, K. pneumonia a) ([4]; 10 μg/disk, duplicate a)): <1 mm; size of the inhibition zone, K. pneumonia b) ([4]; 10 μg/disk, duplicate b)): <1 mm
CC[C@H]1OC(=O)[C@H](C)C(O[C@H]2C[C@@](C)(OC)C[C@H](C)O2)[C@H](C)[C@@H](OC2O[C@H](C)C[C@H](N(C)C)[C@H]2O)[C@](C)(O)C[C@@H](C)CN(C)[C@H](C)[C@@H](O)[C@]1(C)O (stereo partly drawn) [PP004]	< 1 mm	< 1 mm	< 1 mm	< 1 mm	< 1 mm	< 1 mm	< 1 mm	< 1 mm	< 1 mm	< 1 mm	< 1 mm	< 1 mm	< 1 mm	< 1 mm	< 1 mm	< 1 mm					
CC[C@H]1OC(=O)[C@H](C)C(O[C@H]2C[C@@](C)(OC)[C@@H](O)[C@H](C)O2)[C@H](C)[C@@H](OC2C[C@@H](N(C)C)C[C@@H](C)O2)[C@](C)(O)C[C@@H](C)CN(C)[C@H](C)[C@@H](O)[C@]1(C)O (stereo partly drawn) [PP005]	< 1 mm	< 1 mm	< 1 mm	< 1 mm	< 1 mm	< 1 mm	< 1 mm	< 1 mm	< 1 mm	< 1 mm	< 1 mm	< 1 mm	< 1 mm	< 1 mm	< 1 mm	< 1 mm					
CCC1OC(=O)C(C)C(OC2CC(C)(OC)CC(C)O2)C(C)C(OC2CC(N(C)C)CC(C)O2)C(C)(O)CC(C)CN(C)C(C)C(O)C1(C)O (stereo not drawn) [PP006]																	<1 mm	<1 mm	<1 mm	<1 mm	size of the inhibition zone, E. coli a) ([2]; 5 μg/disk, duplicate a)): <1 mm; size of the inhibition zone, E. coli b) ([2]; 5 μg/disk, duplicate b)): <1 mm; size of the inhibition zone, E. coli a) ([2]; 10 μg/disk, duplicate a)): <1 mm; size of the inhibition zone, E. coli b) ([2]; 10 μg/disk, duplicate b)): <1 mm; size of the inhibition zone, P. aeruginosa a) ([3]; 5 μg/disk, duplicate a)): <1 mm; size of the inhibition zone, P. aeruginosa b) ([3]; 5 μg/disk, duplicate b)): <1 mm; size of the inhibition zone, P. aeruginosa a) ([3]; 10 μg/disk, duplicate a)): <1 mm; size of the inhibition zone, P. aeruginosa b) ([3]; 10 μg/disk, duplicate b)): <1 mm; size of the inhibition zone, K. pneumonia a) ([4]; 5 μg/disk, duplicate a)): <1 mm; size of the inhibition zone, K. pneumonia b) ([4]; 5 μg/disk, duplicate b)): <1 mm; size of the inhibition zone, K. pneumonia a) ([4]; 10 μg/disk, duplicate a)): <1 mm; size of the inhibition zone, K. pneumonia b) ([4]; 10 μg/disk, duplicate b)): <1 mm
